Reference: patent US9688710B2, “Inhibitors of sodium glucose cotransporter 1” (LEXICON PHARMACEUTICALS, INC., priority 2012, dated 2017)

Tests used:
[1] = biological target: Human sodium/glucose co-transporter type 1 (SGLT1) (Homo sapiens (Human), UniProt P13866); test: In vitro human SGLT1 inhibition assay (14C-AMG uptake); type: cell-based; conditions: HEK293 cells expressing human HA-SGLT1, 14C-AMG uptake
How it was run: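 Uptake of 14C-AMG (100 nCi) was measured by scintillation counting after 1–2 h at 37 °C, 5% CO2, with or without compound. The buffer was pH 7.3 with 140 mM NaCl, 1 mM CaCl2, 1 mM MgCl2 and 1 mg/mL BSA. Cells were a stable HEK293 line carrying HA-SGLT1 (human), plated overnight at 30,000 per well.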

[2] = biological target: Human sodium/glucose co-transporter type 2 (SGLT2) (Homo sapiens (Human), UniProt P31639); test: In vitro human SGLT2 inhibition assay (14C-AMG uptake); type: cell-based; conditions: HEK293 cells expressing human HA-SGLT2, 14C-AMG uptake
Human sodium/glucose co-transporter type 2 (SGLT2), sequence (P31639 whole entry): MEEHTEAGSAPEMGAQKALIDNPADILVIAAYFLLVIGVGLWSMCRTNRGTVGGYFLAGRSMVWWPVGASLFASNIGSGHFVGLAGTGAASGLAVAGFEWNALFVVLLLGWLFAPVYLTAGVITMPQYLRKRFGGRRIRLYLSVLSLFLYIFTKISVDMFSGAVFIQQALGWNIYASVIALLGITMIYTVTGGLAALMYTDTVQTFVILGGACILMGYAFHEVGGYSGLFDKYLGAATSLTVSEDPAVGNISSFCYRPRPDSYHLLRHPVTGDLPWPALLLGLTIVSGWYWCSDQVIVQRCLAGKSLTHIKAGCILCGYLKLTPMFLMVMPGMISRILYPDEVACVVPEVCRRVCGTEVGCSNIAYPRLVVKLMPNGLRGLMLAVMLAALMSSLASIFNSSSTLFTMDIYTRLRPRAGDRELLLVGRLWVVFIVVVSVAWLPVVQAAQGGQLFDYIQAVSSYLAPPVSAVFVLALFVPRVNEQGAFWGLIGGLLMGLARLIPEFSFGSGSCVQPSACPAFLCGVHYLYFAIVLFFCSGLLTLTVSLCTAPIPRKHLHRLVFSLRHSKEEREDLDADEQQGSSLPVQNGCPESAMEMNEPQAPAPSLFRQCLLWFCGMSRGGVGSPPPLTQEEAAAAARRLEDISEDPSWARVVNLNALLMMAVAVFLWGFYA
How it was run: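 Uptake of 14C-AMG (100 nCi) was followed in a stable HEK293 HA-SGLT2 line over 1-2 h at 37 °C with or without compound. Buffer: 140 mM NaCl, 10 mM HEPES, 5 mM Tris, 1 mg/mL BSA, pH 7.3. Readout was scintillation counting after washing.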

Human sodium/glucose co-transporter type 1 (SGLT1), sequence (P13866 whole entry): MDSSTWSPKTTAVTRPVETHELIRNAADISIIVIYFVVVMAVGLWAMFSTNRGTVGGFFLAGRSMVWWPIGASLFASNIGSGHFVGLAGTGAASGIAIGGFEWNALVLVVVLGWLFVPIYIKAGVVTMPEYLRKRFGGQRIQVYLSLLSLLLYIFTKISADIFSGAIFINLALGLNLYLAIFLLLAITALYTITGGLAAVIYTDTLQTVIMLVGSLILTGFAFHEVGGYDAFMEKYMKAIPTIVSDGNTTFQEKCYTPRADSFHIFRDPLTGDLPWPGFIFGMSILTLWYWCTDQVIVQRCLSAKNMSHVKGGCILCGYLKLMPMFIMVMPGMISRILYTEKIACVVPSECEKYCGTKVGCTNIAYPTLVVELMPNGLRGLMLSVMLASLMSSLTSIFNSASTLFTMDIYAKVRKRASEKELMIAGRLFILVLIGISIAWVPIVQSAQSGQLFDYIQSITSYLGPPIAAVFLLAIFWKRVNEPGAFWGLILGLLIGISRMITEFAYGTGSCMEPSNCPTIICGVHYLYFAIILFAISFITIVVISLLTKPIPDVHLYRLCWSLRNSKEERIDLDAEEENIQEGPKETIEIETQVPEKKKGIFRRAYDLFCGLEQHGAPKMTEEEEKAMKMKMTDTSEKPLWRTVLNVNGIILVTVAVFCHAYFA

CS[C@H]1O[C@@H](c2ccc(C)c(Cc3ccc(OCCCC(=O)NC(C)(C)CO)cc3)c2)[C@H](O)[C@@H](O)[C@@H]1O [N-(1-hydroxy-2-methylpropan-2-yl)-4-(4-(2-methyl-5-((2S,3R,4R,5S,6R)-3,4,5-trihydroxy-6-(methylthio)tetrahydro-2H-pyran-2-yl)benzyl)phenoxy)butanamide]
IC50 [1]: < 10 nM
IC50 [2]: < 10 nM

CS[C@H]1O[C@@H](c2ccc(C)c(Cc3ccc(CCCC(=O)NC(C)(C)CO)cc3)c2)[C@H](O)[C@@H](O)[C@@H]1O [N-(1-hydroxy-2-methylpropan-2-yl)-4-(4-(2-methyl-5-((2S,3R,4R,5S,6R)-3,4,5-trihydroxy-6-(methylthio)tetrahydro-2H-pyran-2-yl)benzyl)phenyl)butanamide]
IC50 [1]: < 10 nM
IC50 [2]: < 10 nM

CS[C@H]1O[C@@H](c2ccc(C)c(Cc3ccc(CCCCC(=O)NC(C)(C)CO)cc3)c2)[C@H](O)[C@@H](O)[C@@H]1O [N-(1-hydroxy-2-methylpropan-2-yl)-5-(4-(2-methyl-5-((2S,3R,4R,5S,6R)-3,4,5-trihydroxy-6-(methylthio)tetrahydro-2H-pyran-2-yl)benzyl)phenyl)pentanamide]
IC50 [1]: < 10 nM
IC50 [2]: < 10 nM

CS[C@H]1O[C@@H](c2ccc(C)c(Cc3ccc(CCCCCCC(=O)NC(C)(C)CO)cc3)c2)[C@H](O)[C@@H](O)[C@@H]1O [N-(1-hydroxy-2-methylpropan-2-yl)-7-(4-(2-methyl-5-((2S,3R,4R,5S,6R)-3,4,5-trihydroxy-6-(methylthio)tetrahydro-2H-pyran-2-yl)benzyl)phenyl)heptanamide]
IC50 [1]: < 100 nM
IC50 [2]: < 10 nM

CS[C@H]1O[C@@H](c2ccc(C)c(Cc3ccc(OCCCC(=O)NCC(C)(C)C(=O)N4CCN(C)CC4)cc3)c2)[C@H](O)[C@@H](O)[C@@H]1O [N-(2,2-dimethyl-3-(4-methylpiperazin-1-yl)-3-oxopropyl)-4-(4-(2-methyl-5-((2S,3R,4R,5S,6R)-3,4,5-trihydroxy-6-(methylthio)tetrahydro-2H-pyran-2-yl)benzyl)phenoxy)butanamide]
IC50 [1]: < 10 nM
IC50 [2]: < 10 nM

CS[C@H]1O[C@@H](c2ccc(C)c(Cc3ccc(CCCC(=O)NCC(C)(C)C(=O)N4CCN(C)CC4)cc3)c2)[C@H](O)[C@@H](O)[C@@H]1O [N-(2,2-dimethyl-3-(4-methylpiperazin-1-yl)-3-oxopropyl)-4-(4-(2-methyl-5-((2S,3R,4R,5S,6R)-3,4,5-trihydroxy-6-(methylthio)tetrahydro-2H-pyran-2-yl)benzyl)phenyl)butanamide]
IC50 [1]: < 10 nM
IC50 [2]: < 10 nM

CS[C@H]1O[C@@H](c2ccc(C)c(Cc3ccc(CCCC(=O)NCC(C)(C)C(=O)NC4CCNCC4)cc3)c2)[C@H](O)[C@@H](O)[C@@H]1O [N-(2,2-dimethyl-3-oxo-3-(piperidin-4-ylamino)propyl)-4-(4-(2-methyl-5-((2S,3R,4R,5S,6R)-3,4,5-trihydroxy-6-(methylthio)tetrahydro-2H-pyran-2-yl)benzyl)phenyl)butanamide]
IC50 [1]: < 100 nM
IC50 [2]: < 10 nM

CS[C@H]1O[C@@H](c2ccc(Cl)c(Cc3ccc(OCCNC(=O)C(C)(C)CO)cc3)c2)[C@H](O)[C@@H](O)[C@@H]1O [N-(2-(4-(2-chloro-5-((2S,3R,4R,5S,6R)-3,4,5-trihydroxy-6-(methylthio)tetrahydro-2H-pyran-2-yl)benzyl)phenoxy)ethyl)-3-hydroxy-2,2-dimethylpropanamide]
IC50 [1]: < 10 nM
IC50 [2]: < 10 nM

CS[C@H]1O[C@@H](c2ccc(Cl)c(Cc3ccc(OCCNC(=O)N4CCN(C)CC4)cc3)c2)[C@H](O)[C@@H](O)[C@@H]1O [N-(2-(4-(2-chloro-5-((2S,3R,4R,5S,6R)-3,4,5-trihydroxy-6-(methylthio)tetrahydro-2H-pyran-2-yl)benzyl)phenoxy)ethyl)-4-methylpiperazine-1-carboxamide]
IC50 [1]: < 10 nM
IC50 [2]: < 10 nM

CCC(=O)NCCOc1ccc(Cc2cc([C@@H]3O[C@H](SC)[C@@H](O)[C@H](O)[C@H]3O)ccc2Cl)cc1 [N-(2-(4-(2-chloro-5-((2S,3R,4R,5S,6R)-3,4,5-trihydroxy-6-(methylthio)tetrahydro-2H-pyran-2-yl)benzyl)phenoxy)ethyl)propionamide]
IC50 [1]: < 10 nM
IC50 [2]: < 10 nM

CS[C@H]1O[C@@H](c2ccc(C)c(Cc3ccc(CCCC(=O)NCC(C)(C)N)cc3)c2)[C@H](O)[C@@H](O)[C@@H]1O [N-(2-amino-2-methylpropyl)-4-(4-(2-methyl-5-((2S,3R,4R,5S,6R)-3,4,5-trihydroxy-6-(methylthio)tetrahydro-2H-pyran-2-yl)benzyl)phenyl)butanamide]
IC50 [1]: < 10 nM
IC50 [2]: < 10 nM

CS[C@H]1O[C@@H](c2ccc(C)c(Cc3ccc(OCCCC(=O)NCC(N)=O)cc3)c2)[C@H](O)[C@@H](O)[C@@H]1O [N-(2-amino-2-oxoethyl)-4-(4-(2-methyl-5-((2S,3R,4R,5S,6R)-3,4,5-trihydroxy-6-(methylthio)tetrahydro-2H-pyran-2-yl)benzyl)phenoxy)butanamide]
IC50 [1]: < 100 nM
IC50 [2]: < 10 nM

CS[C@H]1O[C@@H](c2ccc(C)c(Cc3ccc(OCCCC(=O)NCCO)cc3)c2)[C@H](O)[C@@H](O)[C@@H]1O [N-(2-hydroxyethyl)-4-(4-(2-methyl-5-((2S,3R,4R,5S,6R)-3,4,5-trihydroxy-6-(methylthio)tetrahydro-2H-pyran-2-yl)benzyl)phenoxy)butanamide]
IC50 [1]: < 100 nM
IC50 [2]: < 10 nM

Cc1ccc([C@@H]2O[C@H]([S+](C)[O-])[C@@H](O)[C@H](O)[C@H]2O)cc1Cc1ccc(CCCC(=O)NC(C)(C)C(=O)N2CCN(C)CC2)cc1 (stereo partly drawn) [N-(2-methyl-1-(4-methylpiperazin-1-yl)-1-oxopropan-2-yl)-4-(4-(2-methyl-5-((2S,3R,4R,5S,6R)-3,4,5-trihydroxy-6-(methylsulfinyl)tetrahydro-2H-pyran-2-yl)benzyl)phenyl)butanamide]
IC50 [1]: < 100 nM
IC50 [2]: < 10 nM

CS[C@H]1O[C@@H](c2ccc(C)c(Cc3ccc(OCCCC(=O)NC(C)(C)C(=O)N4CCN(C)CC4)cc3)c2)[C@H](O)[C@@H](O)[C@@H]1O [N-(2-methyl-1-(4-methylpiperazin-1-yl)-1-oxopropan-2-yl)-4-(4-(2-methyl-5-((2S,3R,4R,5S,6R)-3,4,5-trihydroxy-6-(methylthio)tetrahydro-2H-pyran-2-yl)benzyl)phenoxy)butanamide]
IC50 [1]: < 10 nM
IC50 [2]: < 10 nM

CS[C@H]1O[C@@H](c2ccc(C)c(Cc3ccc(CCCC(=O)NC(C)(C)C(=O)N4CCN(C)CC4)cc3)c2)[C@H](O)[C@@H](O)[C@@H]1O [N-(2-methyl-1-(4-methylpiperazin-1-yl)-1-oxopropan-2-yl)-4-(4-(2-methyl-5-((2S,3R,4R,5S,6R)-3,4,5-trihydroxy-6-(methylthio)tetrahydro-2H-pyran-2-yl)benzyl)phenyl)butanamide]
IC50 [1]: < 10 nM
IC50 [2]: < 10 nM

CS[C@H]1O[C@@H](c2ccc(C)c(Cc3ccc(CCCCC(=O)NC(C)(C)C(=O)N4CCN(C)CC4)cc3)c2)[C@H](O)[C@@H](O)[C@@H]1O [N-(2-methyl-1-(4-methylpiperazin-1-yl)-1-oxopropan-2-yl)-5-(4-(2-methyl-5-((2S,3R,4R,5S,6R)-3,4,5-trihydroxy-6-(methylthio)tetrahydro-2H-pyran-2-yl)benzyl)phenyl)pentanamide]
IC50 [1]: < 10 nM
IC50 [2]: < 10 nM

CS[C@H]1O[C@@H](c2ccc(C)c(Cc3ccc(OCCCC(=O)NC(C)(C)C(=O)N4CCC(C)CC4)cc3)c2)[C@H](O)[C@@H](O)[C@@H]1O [N-(2-methyl-1-(4-methylpiperidin-1-yl)-1-oxopropan-2-yl)-4-(4-(2-methyl-5-((2S,3R,4R,5S,6R)-3,4,5-trihydroxy-6-(methylthio)tetrahydro-2H-pyran-2-yl)benzyl)phenoxy)butanamide]
IC50 [1]: < 10 nM
IC50 [2]: < 10 nM

CS[C@H]1O[C@@H](c2ccc(C)c(Cc3ccc(CCCC(=O)NC(C)(C)C(=O)N4CCC(C)CC4)cc3)c2)[C@H](O)[C@@H](O)[C@@H]1O [N-(2-methyl-1-(4-methylpiperidin-1-yl)-1-oxopropan-2-yl)-4-(4-(2-methyl-5-((2S,3R,4R,5S,6R)-3,4,5-trihydroxy-6-(methylthio)tetrahydro-2H-pyran-2-yl)benzyl)phenyl)butanamide]
IC50 [1]: < 10 nM
IC50 [2]: < 10 nM

CS[C@H]1O[C@@H](c2ccc(C)c(Cc3ccc(OCCCC(=O)NC(C)(C)C(=O)NC4CCN(C)CC4)cc3)c2)[C@H](O)[C@@H](O)[C@@H]1O [N-(2-methyl-1-((1-methylpiperidin-4-yl)amino)-1-oxopropan-2-yl)-4-(4-(2-methyl-5-((2S,3R,4R,5S,6R)-3,4,5-trihydroxy-6-(methylthio)tetrahydro-2H-pyran-2-yl)benzyl)phenoxy)butanamide]
IC50 [1]: < 10 nM
IC50 [2]: < 10 nM

CS[C@H]1O[C@@H](c2ccc(C)c(Cc3ccc(CCCC(=O)NC(C)(C)C(=O)NC4CCN(C)CC4)cc3)c2)[C@H](O)[C@@H](O)[C@@H]1O [N-(2-methyl-1-((1-methylpiperidin-4-yl)amino)-1-oxopropan-2-yl)-4-(4-(2-methyl-5-((2S,3R,4R,5S,6R)-3,4,5-trihydroxy-6-(methylthio)tetrahydro-2H-pyran-2-yl)benzyl)phenyl)butanamide]
IC50 [1]: < 10 nM
IC50 [2]: < 10 nM
